Test results from the Kinase Knowledgebase extract (Sharma et al. 2016).

Columns and labels:
EGFR = EGFR (UniProt P00533)
CDK2 = CDK2 (UniProt P24941); assay: Enzyme Assay

Chain of EGFR (P00533 whole entry, looked up): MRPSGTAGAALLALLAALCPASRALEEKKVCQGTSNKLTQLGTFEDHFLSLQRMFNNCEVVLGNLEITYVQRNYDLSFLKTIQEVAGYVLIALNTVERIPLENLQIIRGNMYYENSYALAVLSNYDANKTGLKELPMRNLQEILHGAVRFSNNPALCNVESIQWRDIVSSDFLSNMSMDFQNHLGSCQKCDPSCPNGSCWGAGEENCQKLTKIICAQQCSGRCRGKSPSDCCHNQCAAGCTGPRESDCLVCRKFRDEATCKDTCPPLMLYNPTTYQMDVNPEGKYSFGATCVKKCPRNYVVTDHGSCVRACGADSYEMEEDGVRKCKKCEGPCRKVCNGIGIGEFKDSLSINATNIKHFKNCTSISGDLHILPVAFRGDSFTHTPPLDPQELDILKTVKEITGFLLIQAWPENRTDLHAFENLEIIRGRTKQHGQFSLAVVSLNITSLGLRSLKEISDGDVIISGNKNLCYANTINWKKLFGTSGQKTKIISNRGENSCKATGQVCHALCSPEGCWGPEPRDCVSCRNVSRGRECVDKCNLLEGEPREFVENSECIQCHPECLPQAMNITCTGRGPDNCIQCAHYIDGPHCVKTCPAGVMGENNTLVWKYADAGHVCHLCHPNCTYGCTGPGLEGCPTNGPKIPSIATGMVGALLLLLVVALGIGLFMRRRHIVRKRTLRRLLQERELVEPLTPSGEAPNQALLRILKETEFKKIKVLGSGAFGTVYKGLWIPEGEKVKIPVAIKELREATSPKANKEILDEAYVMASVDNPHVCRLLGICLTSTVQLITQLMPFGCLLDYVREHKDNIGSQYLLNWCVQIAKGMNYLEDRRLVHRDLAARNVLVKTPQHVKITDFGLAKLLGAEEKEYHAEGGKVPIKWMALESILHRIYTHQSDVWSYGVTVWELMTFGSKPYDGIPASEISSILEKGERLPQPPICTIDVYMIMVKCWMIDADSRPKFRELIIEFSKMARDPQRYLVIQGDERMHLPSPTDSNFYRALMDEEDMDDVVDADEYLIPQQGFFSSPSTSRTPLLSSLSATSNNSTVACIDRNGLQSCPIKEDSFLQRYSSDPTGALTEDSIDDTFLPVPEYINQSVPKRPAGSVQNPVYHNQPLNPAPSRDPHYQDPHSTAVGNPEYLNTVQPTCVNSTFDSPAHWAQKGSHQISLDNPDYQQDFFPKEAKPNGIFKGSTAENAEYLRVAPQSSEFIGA

Row | IC50 (EGFR) | IC50 (CDK2) | Compound
1 | < 25 µM | < 25 µM | CCC(C)CN1CCN(c2nc(C)c3nc(-c4c(NC[C@@H](O)c5cccc(Cl)c5)cc[nH]c4=O)[nH]c3n2)CC1 (some centres not stated)
2 | < 25 µM | < 25 µM | O=c1[nH]c2cc3nc(-c4c(NC[C@@H](O)c5cccc(Cl)c5)cc[nH]c4=O)[nH]c3cc2[nH]1
3 | < 25 µM | < 25 µM | CCOC(=O)C1CC1CN1CCN(c2nc(C)c3nc(-c4c(NC[C@@H](O)c5cccc(Cl)c5)cc[nH]c4=O)[nH]c3n2)CC1 (some centres not stated)
4 | < 25 µM | < 25 µM | CCN1CCN(c2nc(C)c3nc(-c4c(NC[C@@H](O)c5cccc(Cl)c5)cc[nH]c4=O)[nH]c3n2)CC1
5 | < 25 µM | < 25 µM | O=c1[nH]ccc(NC[C@@H](O)c2cccc(Br)c2)c1-c1nc2cc3cn[nH]c3cc2[nH]1
6 | < 25 µM | < 25 µM | Cc1nc(N2CCN(Cc3cccc(F)c3)CC2)nc2[nH]c(-c3c(NC[C@@H](O)c4cccc(Cl)c4)cc[nH]c3=O)nc12
7 | < 25 µM | < 25 µM | Cc1nc(N2CCN(COCc3ccccc3)CC2)nc2[nH]c(-c3c(NC[C@@H](O)c4cccc(Cl)c4)cc[nH]c3=O)nc12
8 | < 25 µM | < 25 µM | Cc1nc(N2CCN(Cc3cccn3C)CC2)nc2[nH]c(-c3c(NC[C@@H](O)c4cccc(Cl)c4)cc[nH]c3=O)nc12
9 | < 25 µM | < 25 µM | Cc1nc(N2CCN(Cc3ccccn3)CC2)nc2[nH]c(-c3c(NC[C@@H](O)c4cccc(Cl)c4)cc[nH]c3=O)nc12
10 | < 25 µM | < 25 µM | O=c1[nH]ccc(NCC(O)c2cccc(Br)c2)c1-c1nc2cnccc2[nH]1 (configuration not stated)
11 | < 25 µM | < 25 µM | Cc1nc(N2CCN(C(=O)OC(C)(C)C)CC2)nc2[nH]c(-c3c(NC[C@@H](O)c4cccc(Cl)c4)cc[nH]c3=O)nc12
12 | < 25 µM | < 25 µM | O=c1[nH]ccc(NC[C@@H](O)c2cccc(Cl)c2)c1-c1nc2cc3cn[nH]c3cc2[nH]1
13 | < 25 µM | < 25 µM | Cc1nc(N2CCN(Cc3nccs3)CC2)nc2[nH]c(-c3c(NC[C@@H](O)c4cccc(Cl)c4)cc[nH]c3=O)nc12
14 | < 25 µM | < 25 µM | Cc1nc(N2CCOCC2)nc2[nH]c(-c3c(NC[C@@H](O)c4cccc(Cl)c4)cc[nH]c3=O)nc12
15 | < 25 µM | < 25 µM | Cc1nc(N2CCN(Cc3ncc[nH]3)CC2)nc2[nH]c(-c3c(NC[C@@H](O)c4cccc(Cl)c4)cc[nH]c3=O)nc12
16 | < 25 µM | < 25 µM | COc1ccc([C@H](O)CNc2cc[nH]c(=O)c2-c2nc3cc4cn[nH]c4cc3[nH]2)cc1Br
17 | < 25 µM | < 25 µM | COc1ccc(C(O)CNc2cc[nH]c(=O)c2-c2nc3cnccc3[nH]2)cc1Br (configuration not stated)
18 | < 25 µM | < 25 µM | Cc1nc(N2CCN(CC3CC3)CC2)nc2[nH]c(-c3c(NC[C@@H](O)c4cccc(Cl)c4)cc[nH]c3=O)nc12
19 | < 25 µM | < 25 µM | O=c1[nH]ccc(NCC(O)c2cccc(Cl)c2)c1-c1nc2cnccc2[nH]1 (configuration not stated)
20 | < 25 µM | < 25 µM | Cc1nc(N2CCN(Cc3nccn3C)CC2)nc2[nH]c(-c3c(NC[C@@H](O)c4cccc(Cl)c4)cc[nH]c3=O)nc12
21 | < 25 µM | < 25 µM | Cc1nc(N2CCNCC2)nc2[nH]c(-c3c(NC[C@@H](O)c4cccc(Cl)c4)cc[nH]c3=O)nc12
